Converted amounts (≈) assume the structure as drawn. Blank lines part the entries; values can stand above or below the molecule they belong to.
Legend:
[1] = cited from earlier work
[2] = tested on: S. aureus MRSA 510; experiment: Minimum inhibitory concentration of metal salts by broth microdilution in Trypticase Soya broth (Example 4); type: cell-based, Staphylococcus aureus
Procedure: (§1) Bacterial strains were maintained as suspensions in 20% (v/v) glycerol/Brain-Heart Infusion at −80° C. For use, a loop-full of ice was scraped from the stock and streaked for single colonies on Trypticase Soya agar containing 1.8% agar and incubated overnight at 37° C.
A standard inoculum was prepared from broth culture. One to three colonies from an overnight agar culture plate were transferred to 5 ml of broth media and incubated at 37° C. with shaking (200 rpm) until turbidity was greater than that of a 0.5 McFarland Standard (overnight). All assays were performed in Trypticase Soya broth.
(§2) The broth culture was diluted in broth to a turbidity equal to a 0.5 McFarland Standard using a spectrophotometer at a wavelength of 620 nm. The 0.5 McFarland Standard was further diluted 1:100 in broth to create the standard inoculum. 50 μl of this standard inoculum was dispensed into every well in the microtitre tray, except the negative controls, where 50 μl of broth was dispensed instead.
(§3) Next, a working concentration at two times the highest target concentration for every salt (in aqueous solution) was created in broth from stock solutions. 100 μl of this working concentration was pipetted into the first well, and 50 μl of broth media into all other wells. 50 μl of the first well was pipetted out and serially diluted across all wells in the row until the final concentration in the range achieved. 50 μl from the final well was removed and discarded. This produced a concentration range where each well was double the target concentration. All agents were performed in duplicate.
(§4) 96 well trays were incubated at 37° C. for 18±2 hours.

[3] = tested on: P. aeruginosa strain WACC91; experiment: Resazurin reduction of planktonic cultures in M63 (glucose), D- versus L-Lactic acid (Example 3); type: cell-based, Pseudomonas aeruginosa
Procedure: . Viable cells reduce the blue resazurin dye to the pink, fluorescent resorufin form. Following incubation fluorescence was quantified by excitation wavelength of 540 nm and an emission wavelength of 590 nm using Enspire microplate reader.
P. aeruginosa strain WACC91 was maintained as a suspension in 20% (v/v) glycerol/Brain-Heart Infusion at −80° C. For use, a loop-full of ice was scraped from the stock and streaked for single colonies on LB media containing 1.8% agar and incubated overnight at 37° C. Isolated colonies were looped into 5 mL of LB broth and incubated at 37° C. with shaking until turbidity was greater than that of a 1.0 McFarland Standard (3-4 h).
The broth culture was diluted in M63 minimal media containing 0.2% (w/v) glucose as the sole carbon source to a turbidity equal to a 1.0 McFarland standard using a spectrophotometer at a wavelength of 595 nm. This culture was then diluted 1:100 in M63 (glucose) and 100 μL together with an additional 50 μL was transferred to each well of a 96 well microtitre tray and incubated overnight at 37° C., 5% CO2. D-Lactic acid, L-Lactic acid, or vehicle only (sterile H2O) was then applied by adding 50 μL of appropriate stock solutions diluted in M63 (glucose) and incubating for a further 24 hours at 37° C., 5% CO2. Culture metabolic activity was then determined using resazurin reduction as described above in Example 1.

[4] = tested on: S. pneumoniae D39; experiment: Resazurin reduction for the evaluation of metabolic activity (Example 2); type: cell-based, Streptococcus pneumoniae; details: plus 10 mM D-Lactic acid
Procedure: (§5) Bacterial strains were maintained as suspensions in 20% (v/v) glycerol/Brain-Heart Infusion at −80° C.
(§6) Aerobic respiration was measured in the presence or absence of D-Lactic acid and the presence or absence of companion antibiotics either following incubation and visual recording of the MIC, or in a separate study. For evaluation after completion of MIC determination, the entire volume of the MIC well (100 μl) was mixed by pipetting up and down, then transferred to the equivalent well of a fluorescence-absorbance suitable 96-well plate. Alternatively, cultures were pipetted together as above and incubated overnight at 37° C. in the absence of any antimicrobial compounds. Culture supernatants were removed, adherent cells washed and then treated by the addition of 100 μL of fresh broth, 50 μL of broth containing 4×the desired concentration of antibiotic and 50 μL containing 4×the desired concentration of D-Lactic acid or vehicle only controls, followed by incubation at 37° C. for a further 18±2 hours. After incubation regimes were completed for both procedures, resazurin reduction was evaluated by adding 10 μl of a 0.02% resazurin solution to every well, and incubating the plates with gentle shaking (40 rpm) for a further 90 minutes at 37° C. 96-well plates and resazurin were protected from light as much as possible.
(§7) Following incubation, the 96-well trays were read on a fluorescence-absorbance spectrophotometer, using an excitation frequency of 565 nm and emission frequency of 590 nm. The value for each well was blanked by subtracting the value of the negative control. Every value was then converted to a ratio with respect to the mean value of the positive controls.

[5] = tested on: S. pneumoniae D39; experiment: Minimum inhibitory concentration by broth microdilution (Example 2); type: cell-based, Streptococcus pneumoniae; details: for MIC + 1 mM D-Lactic acid: antibiotic + 1 mM D-Lactic acid; for MIC + 10 mM D-Lactic acid: antibiotic + 10 mM D-Lactic acid; for MIC: antibiotic alone
Procedure: as §1, with “rich media” for “Trypticase Soya agar”, “agar (for Pseudomonas aeruginosa or Klebsiella pneumoniae, Luria-Bertani medium; for Staphylococcus aureus or Streptococcus pneumoniae, Trypticase Soy agar)” for “agar”
(§8) A standard inoculum was prepared from broth culture. 1 to 3 colonies from an overnight agar culture plate were transferred to 5 ml of broth media and incubated at 37° C. with shaking (200 rpm) until turbidity was greater than that of a 0.5 McFarland Standard (overnight). The following broth media were used: Cation-adjusted Mueller-Hinton broth (caMHB—all strains); Roswell Park Memorial Institute medium (RPMI 1640, phenol red-free—S. aureus); Trypticase Soya Broth (TSB—S. aureus, S. pneumoniae); Todd Hewitt Broth (THB—S. pneumoniae), M63 minimal medium, supplemented with 0.2% glucose (M63—K. pneumoniae).
as §2
as §3, with “antimicrobial” for “salt (in aqueous solution)”
as §4

[6] = tested on: S. aureus 29213 (MSSA); experiment: as above; type: cell-based, Staphylococcus aureus; details: for MIC + 1 mM D-Lactic acid: antibiotic + 1 mM D-Lactic acid; for MIC + 10 mM D-Lactic acid: antibiotic + 10 mM D-Lactic acid
Procedure: as §5
(§9) A standard inoculum was prepared from broth culture.
as §2
as §3, with “antimicrobial” for “salt (in aqueous solution)”
as §4

[7] = tested on: P. aeruginosa WACC91; experiment: as above; type: cell-based, Pseudomonas aeruginosa; details: for MIC + 1 mM D-Lactic acid: antibiotic + 1 mM D-Lactic acid; for MIC + 10 mM D-Lactic acid: antibiotic + 10 mM D-Lactic acid; for MIC: antibiotic alone
Procedure: as §1, with “rich media” for “Trypticase Soya agar”, “agar (for Pseudomonas aeruginosa or Klebsiella pneumoniae, Luria-Bertani medium; for Staphylococcus aureus or Streptococcus pneumoniae, Trypticase Soy agar)” for “agar”
as §8, §2
as §3, with “antimicrobial” for “salt (in aqueous solution)”
as §4

[8] = tested on: S. aureus 510 (MRSA); experiment: Resazurin reduction for the evaluation of metabolic activity (Example 2); type: cell-based, Staphylococcus aureus
Procedure: as §5, §6, §7

[9] = tested on: S. aureus 29213 (MSSA); experiment: as above; type: cell-based, Staphylococcus aureus; details: plus 10 mM D-Lactic acid
Procedure: as §5, §6, §7

[10] = tested on: S. aureus 510 (MRSA); experiment: Minimum inhibitory concentration by broth microdilution (Example 2); type: cell-based, Staphylococcus aureus; details: unit assumed; for MIC + 1 mM D-Lactic acid: antibiotic + 1 mM D-Lactic acid; for MIC + 10 mM D-Lactic acid: antibiotic + 10 mM D-Lactic acid; for MIC: antibiotic alone
Procedure: as §5, §9, §2
as §3, with “antimicrobial” for “salt (in aqueous solution)”
as §4

SMILES: O=C(O)C(O)c1ccccc1 (stereo not drawn) [2-hydroxy-2-phenylacetic acid]
Water solubility* [1]: 1140 mM

SMILES: CCC(O)C(=O)O (stereo not drawn) [2-hydroxybutanoic acid]
Water solubility* [1]: 1930 mM

SMILES: CCCCC(O)C(=O)O (stereo not drawn) [2-hydroxyhexanoic acid]
Water solubility* [1]: 270 mM

SMILES: CCCC(O)C(=O)O (stereo not drawn) [2-hydroxypentanoic acid]
Water solubility* [1]: 1640 mM

SMILES: C[C@H](O)C(=O)O [L-Lactic acid]
breakpoint of metabolic rate (concentration range in which the change of activity is clearest) ([3]; Resazurin reduction in comparison to vehicle-only treatment): No comparable breakpoint is observed | change in metabolic activity ([3]; resorufin fluorescence, same concentrations as D-Lactic acid): No change in metabolic activity

SMILES: CN(C)[C@@H]1C(O)=C(C(N)=O)C(=O)[C@@]2(O)C(O)=C3C(=O)c4c(O)cccc4[C@@](C)(O)[C@H]3C[C@@H]12 [tetracycline]
MIC + 1 mM D-Lactic acid [10]: < 0.5 µg/mL | MIC + 10 mM D-Lactic acid [10]: < 0.5 µg/mL | MIC [10]: 1 µg/mL (≈ 2.25 µM)

SMILES: CN[C@H](CC(C)C)C(=O)N[C@H]1C(=O)N[C@@H](CC(N)=O)C(=O)N[C@H]2C(=O)N[C@H]3C(=O)N[C@H](C(=O)N[C@H](C(=O)O)c4cc(O)cc(O)c4-c4cc3ccc4O)[C@H](O)c3ccc(c(Cl)c3)Oc3cc2cc(c3O[C@@H]2O[C@H](CO)[C@@H](O)[C@H](O)[C@H]2O[C@H]2C[C@](C)(N)[C@H](O)[C@H](C)O2)Oc2ccc(cc2Cl)[C@H]1O [vancomycin]
Relative metabolic activity, antibiotic plus D-Lactic acid versus antibiotic only [4]: enhances metabolic activity suppression | Relative metabolic activity, antibiotic plus D-Lactic acid versus antibiotic only ([8]; plus 1.0 mM D-Lactic acid): enhances metabolic activity suppression | Relative metabolic activity, antibiotic plus D-Lactic acid versus antibiotic only [9]: enhances metabolic activity suppression | MIC + 1 mM D-Lactic acid [10]: 2 µg/mL | MIC + 10 mM D-Lactic acid [10]: 2 µg/mL | MIC [10]: 8 µg/mL (≈ 5.52 µM) | MIC + 1 mM D-Lactic acid [6]: 4.0 | MIC + 10 mM D-Lactic acid [6]: 2.0

The next lines start with results.

MIC D-Lactate salt ([2]; metal ion as D-Lactate salt): 4 mM | MIC (NO3)2 salt ([2]; metal ion as nitrate salt): 8 mM
SMILES: [Cu+2] [Cu^2+]

MIC + 1 mM D-Lactic acid [5]: 0.25 | MIC + 10 mM D-Lactic acid [5]: 0.25 | MIC [5]: 0.5 | MIC + 1 mM D-Lactic acid [6]: <1.0 | MIC + 10 mM D-Lactic acid [6]: 2.0
SMILES: CC1(C)S[C@@H]2[C@H](NC(=O)[C@H](N)c3ccc(O)cc3)C(=O)N2[C@H]1C(=O)O [amoxicillin]
Relative metabolic activity, antibiotic plus D-Lactic acid versus antibiotic only [4]: enhances metabolic activity suppression

MIC + 1 mM D-Lactic acid [5]: 4.0 | MIC + 10 mM D-Lactic acid [5]: 4.0 | MIC [5]: >16.0
SMILES: CC1(C)S[C@@H]2[C@H](NC(=O)[C@H](N)c3ccccc3)C(=O)N2[C@H]1C(=O)O [ampicillin]
Relative metabolic activity, antibiotic plus D-Lactic acid versus antibiotic only [4]: enhances metabolic activity suppression

MIC + 1 mM D-Lactic acid [7]: 4.0 | MIC + 10 mM D-Lactic acid [7]: 4.0 | MIC [7]: 8.0
SMILES: C[C@H]1[C@H](NC(=O)/C(=N\OC(C)(C)C(=O)O)c2csc(N)n2)C(=O)N1S(=O)(=O)O [aztreonam]

MIC + 1 mM D-Lactic acid [10]: 8 µg/mL | MIC + 10 mM D-Lactic acid [10]: 8 µg/mL | MIC [10]: 16 µg/mL (≈ 28.9 µM) | MIC + 1 mM D-Lactic acid [6]: 4.0 | MIC + 10 mM D-Lactic acid [6]: 4.0
SMILES: CO/N=C(\C(=O)N[C@@H]1C(=O)N2C(C(=O)O)=C(CSc3nc(=O)c(=O)[nH]n3C)CS[C@H]12)c1csc(N)n1 [ceftriaxone]
Relative metabolic activity, antibiotic plus D-Lactic acid versus antibiotic only [4]: enhances metabolic activity suppression | Relative metabolic activity, antibiotic plus D-Lactic acid versus antibiotic only ([8]; plus 0.1 mM D-Lactic acid): enhances metabolic activity suppression | Relative metabolic activity, antibiotic plus D-Lactic acid versus antibiotic only [9]: enhances metabolic activity suppression

MIC + 1 mM D-Lactic acid [7]: <0.5 | MIC + 10 mM D-Lactic acid [7]: <0.5 | MIC [7]: 1.0 | MIC + 1 mM D-Lactic acid [5]: 0.25 | MIC + 10 mM D-Lactic acid [5]: 0.5 | MIC [5]: 0.5 | MIC + 1 mM D-Lactic acid [10]: 2 µg/mL | MIC + 10 mM D-Lactic acid [10]: 2 µg/mL | MIC [10]: > 4 µg/mL | MIC + 1 mM D-Lactic acid [6]: 0.5 | MIC + 10 mM D-Lactic acid [6]: 0.5
SMILES: C[C@@H](O)[C@H]1C(=O)N2C(C(=O)O)=C(S[C@@H]3CN[C@H](C(=O)N(C)C)C3)[C@H](C)[C@H]12 [meropenem]
Relative metabolic activity, antibiotic plus D-Lactic acid versus antibiotic only ([8]; plus 10 mM D-Lactic acid): enhances metabolic activity suppression | Relative metabolic activity, antibiotic plus D-Lactic acid versus antibiotic only [9]: enhances metabolic activity suppression

MIC + 1 mM D-Lactic acid [10]: 2 µg/mL | MIC + 10 mM D-Lactic acid [10]: 2 µg/mL | MIC [10]: > 16 µg/mL | MIC + 1 mM D-Lactic acid [6]: 0.5 | MIC + 10 mM D-Lactic acid [6]: 0.5
SMILES: COc1cccc(OC)c1C(=O)N[C@@H]1C(=O)N2[C@@H]1SC(C)(C)[C@@H]2C(=O)O [methicillin]
Relative metabolic activity, antibiotic plus D-Lactic acid versus antibiotic only ([8]; plus 10 mM D-Lactic acid): enhances metabolic activity suppression | Relative metabolic activity, antibiotic plus D-Lactic acid versus antibiotic only [9]: enhances metabolic activity suppression
